Molecules are shown by their SMILES.

The subject of one assay is KRas G12C mutant. Description: Ras GTP Binding Domain Inhibition Assay (Ras Superfamily Assay). Conditions: 20 μM compound; for KRas G12C mutant + SOS: % inh.: with SOS; for KRas G12C mutant: % inh.: without SOS. In short, it runs like this: (§1)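 Binding of 100 nM fluorescent GTP (Cy3 or Cy5, 45 min, room temperature) was read after washes from plate-captured His-tagged protein. Beforehand, compounds at 20 μM or in dilution series for IC50 sat 3 h on the protein in Tris buffer pH 7.4 or 7.0 with 1% DMSO, Sos GEF optionally added for the last hour.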

The subject of the next assay is KRas Q61H mutant. The assay is described as above. Conditions: 20 μM compound; for KRas Q61H mutant + SOS: % inh.: with SOS; for KRas Q61H mutant: % inh.: without SOS. In short, it runs like this: as §1
Another assay deals with T1, Rho-A (Homo sapiens, UniProt P61586).
T1 construct: made in house
The description is as above. Conditions: read-out: Rho-A: % inh.. In short, it runs like this:
as §1

The target in the next assay is T2, cdc42 (Homo sapiens, UniProt P60953).
T2 construct: made in house
Description: Cdc42 GTP Binding Domain Inhibition Assay. Conditions: read-out: Cdc42: % inh. The method, then:
Protocol for Cdc42 and Rheb GTP Binding Domain Inhibition Assay
The following method was developed as specific assay for cdc42 and Rheb proteins.
• 25 mM Tris-HCl, pH 7.4 • 27 mM KCl • 137 mM NaCl • 1 mM MgCl2 • 1 mM DTT Buffer-II: • 50 mM Tris-HCl, pH 7.0 • 1 mM MgCl2 • 1 mM DTT
The small GTPases proteins cdc42 and Rheb were expressed as His-tagged proteins. For the assay, the cdc42 and Rheb purified small GTPases proteins were diluted in Buffer-I or Buffer-II to a final concentration of 10-30 μg/mL. 200 μL of each diluted protein was added to a nickel-coated 96-well plate and incubated overnight at […]. Then the protein solution was discarded and 200 μL of Buffer-I or Buffer-II was added to each well in the presence of 1% DMSO. Compounds to be tested were added to the protein-coated wells at final concentration of 20 μM, and incubated for 3 hours at room temperature with and without 10-30 μg/mL of Sos added to the final hour of the incubation. When performing IC50 measurements a serial dilution of all tested concentrations was added. Then Cy3-GTP or Cy5-GTP was added to each well to a final concentration of 100 nM. The labeled GTP was incubated for 45 minutes at room temperature. Following GTP incubation, wells were washed 3× in Buffer-I or Buffer-II and 200 μL of Buffer-I or Buffer-II was added to each well. Following washes, the amount of bound labeled-GTP was measured using a SpectraMax M3 (Molecular Devices).

T1 sequence (P61586 whole entry): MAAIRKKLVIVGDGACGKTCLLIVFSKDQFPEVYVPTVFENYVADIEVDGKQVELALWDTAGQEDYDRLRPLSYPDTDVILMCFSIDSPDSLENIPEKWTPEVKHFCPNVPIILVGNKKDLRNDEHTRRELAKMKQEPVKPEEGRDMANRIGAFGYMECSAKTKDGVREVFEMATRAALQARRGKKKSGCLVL
T2 sequence (P60953 whole entry): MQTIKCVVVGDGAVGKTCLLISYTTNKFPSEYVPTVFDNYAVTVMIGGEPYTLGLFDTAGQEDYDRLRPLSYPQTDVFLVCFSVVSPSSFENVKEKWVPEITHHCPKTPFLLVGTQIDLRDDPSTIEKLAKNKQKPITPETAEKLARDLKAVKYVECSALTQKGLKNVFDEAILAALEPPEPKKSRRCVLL

In the case of `COc1ccnc(Nc2nc(-c3nccn3C)nn3cc(-c4ccn(C(F)F)n4)c(C)c23)n1` [Compound 95, 6-(1-(Difluoromethyl)-1H-pyrazol-3-yl)-N-(4-methoxypyrimidin-2-yl)-5-methyl-2-(1-methyl-1H-imidazol-2-yl)pyrrolo[2,1-f][1,2,4]triazin-4-amine], in the assay on KRas G12C mutant, the “KRas G12C mutant + SOS: % inh.” value is recorded as “B (B = 26-49% inhibition)” and the “KRas G12C mutant: % inh.” value was “B (B = 26-49% inhibition)”. Besides, in the assay on KRas Q61H mutant, the “KRas Q61H mutant + SOS: % inh.” value is given as “C (C = 50-75% inhibition)” and the “KRas Q61H mutant: % inh.” value is “C (C = 50-75% inhibition)”. For the same molecule, the inhibition at 20 µM on Rho-A lay within 76 to 100%. In addition, the inhibition at 20 µM on cdc42 lay in the range of 50 to 75%.
For `COc1cc(Nc2nc(-c3nccn3C)nn3cc(-c4ccn(C(C)C)n4)c(C)c23)ncn1` [Compound 6, 6-(1-Isopropyl-1H-pyrazol-3-yl)-N-(6-methoxypyrimidin-4-yl)-5-methyl-2-(1-methyl-1H-imidazol-2-yl)pyrrolo[2,1-f][1,2,4]triazin-4-amine], in the assay on KRas G12C mutant, the “KRas G12C mutant + SOS: % inh.” value was “C (C = 50-75% inhibition)” and the “KRas G12C mutant: % inh.” value was “C (C = 50-75% inhibition)”. For the same molecule, in the assay with KRas Q61H mutant, the “KRas Q61H mutant + SOS: % inh.” value was “C (C = 50-75% inhibition)” and the “KRas Q61H mutant: % inh.” value is recorded as “C (C = 50-75% inhibition)”. Besides, on Rho-A, the inhibition at 20 µM was 76 to 100%. Also, the inhibition at 20 µM at cdc42 fell in the range of 50 to 75%.
For the molecule `CO[C@H]1CC[C@@H](Nc2nc(-c3ccccn3)nn3cc(-c4ccn(C(C)C)n4)c(C)c23)C1` (racemic) [Compound 9, rac 6-(1-Isopropyl-1H-pyrazol-3-yl)-N-((1R,3S)-3-methoxycyclopentyl)-5-methyl-2-(pyridin-2-yl)pyrrolo[2,1-f][1,2,4]triazin-4-amine], in the assay with KRas G12C mutant, the “KRas G12C mutant + SOS: % inh.” value is given as 0 (0 = 0% inhibition) and the “KRas G12C mutant: % inh.” value was “B (B = 26-49% inhibition)”. Besides, in the assay with KRas Q61H mutant, the “KRas Q61H mutant + SOS: % inh.” value is recorded as 0 (0 = 0% inhibition) and the “KRas Q61H mutant: % inh.” value is “A (A = 1-25% inhibition)”. In addition, the inhibition at 20 µM on Rho-A amounted to 0%.
As for `Cc1c(-c2ccn(C(C)C)n2)cn2nc(-c3nccn3C)nc(Nc3nccn3C)c12` [Compound 93, 6-(1-Isopropyl-1H-pyrazol-3-yl)-5-methyl-N,2-bis(1-methyl-1H-imidazol-2-yl)pyrrolo[2,1-f][1,2,4]triazin-4-amine], in the assay with KRas G12C mutant, the “KRas G12C mutant + SOS: % inh.” value is “C (C = 50-75% inhibition)” and the “KRas G12C mutant: % inh.” value is on record as “D (D = 76-100% inhibition)”. In the assay on KRas Q61H mutant, the “KRas Q61H mutant + SOS: % inh.” value is recorded as “D (D = 76-100% inhibition)” and the “KRas Q61H mutant: % inh.” value was “C (C = 50-75% inhibition)”. Also, the inhibition at 20 µM on Rho-A was in the range of 76 to 100%. In addition, the inhibition at 20 µM at cdc42 fell in the range of 76 to 100%.
Turning to `COc1cc(Nc2nc(-c3nccn3C)nn3cc(-c4ccccn4)c(C)c23)ncn1` [Compound 94, N-(6-Methoxypyrimidin-4-yl)-5-methyl-2-(1-methyl-1H-imidazol-2-yl)-6-(pyridin-2-yl)pyrrolo[2,1-f][1,2,4]triazin-4-amine], in the assay on KRas G12C mutant, the “KRas G12C mutant + SOS: % inh.” value was “B (B = 26-49% inhibition)” and the “KRas G12C mutant: % inh.” value is on record as “B (B = 26-49% inhibition)”. Besides, in the assay on KRas Q61H mutant, the “KRas Q61H mutant + SOS: % inh.” value is on record as “C (C = 50-75% inhibition)” and the “KRas Q61H mutant: % inh.” value is on record as “B (B = 26-49% inhibition)”. In addition, the inhibition at 20 µM on Rho-A lay in the range of 76 to 100%. Besides, the inhibition at 20 µM on cdc42 lay within 26 to 49%.
For `Cc1c(-c2ccn(C)n2)cn2nc(-c3nccn3C)nc(Cl)c12` [Compound 99, 4-Chloro-5-methyl-2-(1-methyl-1H-imidazol-2-yl)-6-(1-methyl-1H-pyrazol-3-yl)pyrrolo[2,1-f][1,2,4]triazine], in the assay on KRas G12C mutant, the “KRas G12C mutant + SOS: % inh.” value is “B (B = 26-49% inhibition)” and the “KRas G12C mutant: % inh.” value is “B (B = 26-49% inhibition)”.
Take `Cc1c(-c2ccn(C(C)C)n2)cn2nc(-c3ccccn3)nc(O)c12` [Compound 8, 6-(1-Isopropyl-1H-pyrazol-3-yl)-5-methyl-2-(pyridin-2-yl)pyrrolo[2,1-f][1,2,4]triazin-4-ol]: in the assay with KRas G12C mutant, the “KRas G12C mutant + SOS: % inh.” value is on record as “A (A = 1-25% inhibition)” and the “KRas G12C mutant: % inh.” value is reported as 0 (0 = 0% inhibition). Also, in the assay on KRas Q61H mutant, the “KRas Q61H mutant + SOS: % inh.” value is recorded as 0 (0 = 0% inhibition) and the “KRas Q61H mutant: % inh.” value is given as 0 (0 = 0% inhibition). Moreover, the inhibition at 20 µM at Rho-A stood at 0%.

The values above are taken from patent US12459951B2, “Compounds that interact with RAS superfamily proteins for treatment of cancers, inflammatory diseases, rasopathies, and fibrotic disease” (SHY Therapeutics, LLC, priority 2022, dated 2025).
